Measurements as given in US20140179681A1, “METHODS AND COMPOSITIONS OF TARGETED DRUG DEVELOPMENT” (priority 2010, published 2014).
Where “and” joins values, the source holds several entries; their conditions need not be identical. Equal entries are not always repeated. Where two headings read alike, the source gives them in different places.

Columns and labels:
[1] = molecular target: T1, EGFR (Homo sapiens, UniProt P00533); assay: EGFR in-cell Western (ICW) screening protocol (EGFR inhibition assay); type: cell-based; settings: for ICW assay: Table 10, % Inhibition of EGF dependent EGFR phosphorylation in A431 cells, compound 125 μM in assay
T1 construct: host or cells: A431
T1 sequence (P00533 25-1210): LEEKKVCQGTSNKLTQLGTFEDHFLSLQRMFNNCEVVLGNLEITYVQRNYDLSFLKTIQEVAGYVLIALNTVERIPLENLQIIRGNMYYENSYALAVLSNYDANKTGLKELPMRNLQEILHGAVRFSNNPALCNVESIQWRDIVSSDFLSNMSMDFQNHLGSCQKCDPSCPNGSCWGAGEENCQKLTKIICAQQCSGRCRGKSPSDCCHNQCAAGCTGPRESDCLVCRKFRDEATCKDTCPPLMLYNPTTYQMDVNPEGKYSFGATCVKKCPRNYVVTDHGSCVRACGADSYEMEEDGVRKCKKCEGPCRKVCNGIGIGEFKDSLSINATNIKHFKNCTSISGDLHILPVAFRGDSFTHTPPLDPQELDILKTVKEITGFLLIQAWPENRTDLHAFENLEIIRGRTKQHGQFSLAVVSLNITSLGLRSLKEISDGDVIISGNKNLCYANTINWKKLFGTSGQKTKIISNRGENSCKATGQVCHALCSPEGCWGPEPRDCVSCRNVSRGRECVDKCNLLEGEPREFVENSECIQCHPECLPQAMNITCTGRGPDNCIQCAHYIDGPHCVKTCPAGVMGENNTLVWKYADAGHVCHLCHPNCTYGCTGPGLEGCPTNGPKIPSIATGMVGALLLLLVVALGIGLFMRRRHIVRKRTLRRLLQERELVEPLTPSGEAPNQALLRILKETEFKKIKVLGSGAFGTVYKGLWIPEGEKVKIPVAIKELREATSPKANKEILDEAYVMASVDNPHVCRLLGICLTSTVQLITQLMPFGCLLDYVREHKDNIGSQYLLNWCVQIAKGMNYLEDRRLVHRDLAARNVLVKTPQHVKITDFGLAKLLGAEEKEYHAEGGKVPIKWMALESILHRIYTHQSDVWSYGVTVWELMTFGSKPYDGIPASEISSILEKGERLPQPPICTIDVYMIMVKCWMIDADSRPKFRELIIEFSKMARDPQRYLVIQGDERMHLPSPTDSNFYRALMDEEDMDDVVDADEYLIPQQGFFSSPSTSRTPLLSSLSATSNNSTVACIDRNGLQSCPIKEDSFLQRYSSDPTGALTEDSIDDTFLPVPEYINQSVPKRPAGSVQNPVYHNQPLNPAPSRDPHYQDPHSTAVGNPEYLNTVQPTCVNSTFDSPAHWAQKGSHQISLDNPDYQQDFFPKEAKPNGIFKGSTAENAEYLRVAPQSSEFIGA
In short: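 Serum-starved A431 cells (2 h) were pretreated with compound for 4 h at 37° C, then stimulated with EGF (10 ng/ml final, or 6.6 or 12.5 ng/ml in some runs) for 10 min. After formaldehyde fixation, phospho-EGFR (Tyr1173, or Tyr1045 in some runs) and total EGFR were detected by in-cell Western immunostaining.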

[2] = test system: epithelial carcinoma A431 cell line; assay: MTT Cell Proliferation Assay, A431 cells; type: cell-based
In short: (§1)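 Viability was measured by mitochondrial MTT reduction after cells were exposed to compound for 3 days in reduced-serum medium. Inhibition was calculated per plate against 0.5% DMSO controls.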

[3] = test system: MDBK line; assay: MTT Cell Proliferation Assay, MDBK cells; type: cell-based, bovine
In short: as §1

[4] = Homo sapiens, A-431, first value of 'a/b (c)', taken as A431 cells, read-out: MTT Screen, first value of cell
[5] = Bos taurus, MDBK, second value of 'a/b (c)', taken as MDBK cells, read-out: MTT Screen, second value of cell
[6] = first value of 'a/b (c)', taken as A431 cells, read-out: MTT Screen, first value of cell
[7] = second value of 'a/b (c)', taken as MDBK cells, read-out: MTT Screen, second value of cell
[8] = Homo sapiens, A-431, 72 h, Table 10, first of x/y(ratio): A431, three day treatment, unit not printed (doses in μM), read-out: MTT assay (first value)
[9] = Bos taurus, MDBK, 72 h, Table 10, second of x/y(ratio): MDBK, three day treatment, unit not printed (doses in μM), read-out: MTT assay (second value)
[10] = Table 10, first of x/y(ratio): A431, three day treatment, unit not printed (doses in μM), read-out: MTT assay (first value)
[11] = Table 10, second of x/y(ratio): MDBK, three day treatment, unit not printed (doses in μM), read-out: MTT assay (second value)

ICW Screen (ICW Inhibition) [1] | IC50 [2, 4] [µM] | ICW assay [1] | IC50 [2, 8] [µM] | Structure (SMILES) | IC50 [3, 5] [µM] | IC50 [3, 9] [µM] | also measured
41.23 | 18.6 | – | – | Cc1cc(C)cc(NS(=O)(=O)c2ccc(NC(=S)NC(=O)CCc3ccccc3)cc2)c1 [AD4-12139] | 5.3 | – | –
30.469 | 40.5 | – | – | CN1CCN(S(=O)(=O)c2ccc(NC(=S)NC(=O)/C=C/c3ccccc3)cc2)CC1 [AD4-12145] | 41.8 | – | –
40.916 | 26.6 | – | – | CC1CCC(S(=O)(=O)c2ccc(NC(=S)NC(=O)C3CC3)cc2)CC1 (stereo not drawn) [AD4-12146] | 25.8 | – | –
51.845 | 42.8 | – | – | COc1ccccc1/C=C/C(=O)NC(=S)Nc1ccc(S(=O)(=O)Nc2nc(C)cc(C)n2)cc1 [AD4-12148] | 39.2 | – | –
33.331 | 21.9 | – | – | COc1ccc(NS(=O)(=O)c2ccc(NC(=S)NC(=O)CCC(=O)OCCc3ccccc3)cc2)cc1 [AD4-12149] | 36.2 | – | –
50.528 | 21 | – | – | Cc1ccc(NS(=O)(=O)c2ccc(NC(=S)NC(=O)COc3ccc(Cl)cc3C)cc2)c(C)c1 [AD4-12152] | 16.2 | – | –
31.36 | 15.6 | – | – | CC1CCN(S(=O)(=O)c2ccc(NC(=S)NC(=O)CCC(=O)OCCc3ccccc3)cc2)CC1 [AD4-12153] | 21.8 | – | –
36.727 | 5.01 | – | – | Cc1cc(C)nc(NS(=O)(=O)c2ccc(NC(=S)NC(=O)COc3ccc(Br)cc3Cl)cc2)n1 [AD4-12158] | 4.58 | – | –
36.632 | – | – | – | COc1ccc(OCC(=O)NC(=S)Nc2ccc(S(=O)(=O)Nc3cc(C)cc(C)c3)cc2)cc1 [AD4-12165] | 12 | – | IC50 [2, 6]: 63.6 µM
28.819 | 60.5 | – | – | CN(c1ccccc1)S(=O)(=O)c1ccc(NC(=S)NC(=O)/C=C/c2ccccc2)cc1 [AD4-12168] | 19.7 | – | MTT Screen, first value of cell ([2]; first value of 'a/b (c)', taken as A431 cells): non- conver- gent
37.375 | 38.9 | – | – | O=C(NC(=S)Nc1ccc(S(=O)(=O)NC2CCCCC2)cc1)C1CC1 [AD4-12171] | 37.1 | – | –
35.393 | 37.3 | – | – | Cc1cc(NS(=O)(=O)c2ccc(NC(=S)NC(=O)/C=C/c3ccccc3)cc2)no1 [AD4-12173] | – | – | IC50 [2, 6]: 55.8 µM; IC50 [3, 7]: 106 µM and 54 µM
42.36 | – | – | – | Cc1ccc(NS(=O)(=O)c2ccc(NC(=S)NC(=O)C3CCC3)cc2)cc1C [AD4-12175] | – | – | IC50 [2, 6]: 40 µM; IC50 [3, 7]: 9.56 µM
37.695 | 25.6 | – | – | CCCC(=O)NC(=S)Nc1ccc(S(=O)(=O)Nc2ccc(OCC)cc2)cc1 [AD4-12183] | 17.2 | – | –
34.379 | 18 | – | – | COc1ccc(NS(=O)(=O)c2ccc(NC(=S)NC(=O)COc3ccc(Cl)cc3C)cc2)cc1 [AD4-12196] | 36.8 | – | –
– | – | 38.3844 | 8.36 | COc1ccc(NC(=S)Nc2ccc(S(=O)(=O)Nc3ccc(Cl)c(Cl)c3)cc2)cc1OC [AD4-12246] | – | 8.01 | –
– | – | 29.3683 | 12.7 | Cc1cc(C)c(NS(=O)(=O)c2ccc(NC(=S)Nc3ccc(S(N)(=O)=O)cc3)cc2)c(C)c1 [AD4-12250] | – | 11.6 | –
40.146 | – | – | – | COc1cc(NS(=O)(=O)c2ccc(NC(=S)NC(=O)/C=C/c3ccccc3)cc2)nc(OC)n1 [AD4-12262] | – | – | IC50 [2, 6]: 42.9 µM; IC50 [3, 7]: 43.4 µM
31.19 | 38.1 | – | – | COc1ccccc1/C=C/C(=O)NC(=S)Nc1ccc(S(=O)(=O)N2CCN(C)CC2)cc1 [AD4-12265] | 35.1 | – | –

ICW Screen (ICW Inhibition) [1] | IC50 [2, 4] [µM] | ICW assay [1] | IC50 [2, 8] [µM] | Structure (SMILES) | IC50 [3, 5] [µM] | IC50 [3, 9] [µM] | also measured
29.289 | 49.6 | – | – | COc1ccc(CC(=O)NC(=S)Nc2ccc(S(=O)(=O)Nc3nc(C)cc(C)n3)cc2)cc1 [AD4-12266] | 45.9 | – | –
33.104 | – | – | – | Cc1cc(NS(=O)(=O)c2ccc(NC(=S)NC(=O)/C=C/c3ccccc3)cc2)no1 [AD4-12273] | – | – | IC50 [2, 6]: 31.7 µM; IC50 [3, 7]: 42.9 µM
41.439 | 10.2 | – | – | CN(c1ccccc1)S(=O)(=O)c1ccc(NC(=S)NC(=O)/C=C/c2ccc(F)cc2)cc1 [AD4-12280] | 17.7 | – | IC50 [2, 6]: 5.76 µM; IC50 [3, 7]: 21.2 µM
26.829 | 15.5 | – | – | CC1CCN(S(=O)(=O)c2ccc(NC(=S)NC(=O)C3CC3)cc2)CC1 [AD4-12286] | 29.9 | – | –
– | – | 72.5659 | – | CCN(c1ccccc1)S(=O)(=O)c1ccc(NC(=S)Nc2ccccc2)cc1 [AD4-12389] | – | – | IC50 [2, 10]: 12.2 µM; IC50 [3, 11]: 6.07 µM
– | – | 37.4191 | 11.1 | CC(=O)c1cccc(NC(=S)Nc2ccc(S(=O)(=O)Nc3c(C)cc(C)cc3C)cc2)c1 [AD4-12391] | – | 9.09 | –
– | – | 57.5206 | 7.92 | Cc1cc(C)c(NS(=O)(=O)c2ccc(NC(=S)Nc3ccccc3F)cc2)c(C)c1 [AD4-12395] | – | 6.96 | –
– | – | 69.4793 | 4.05 | Cc1ccc(NC(=S)Nc2ccc(S(=O)(=O)Nc3cc(Cl)cc(Cl)c3)cc2)cc1C [AD4-12400] | – | 5.77 | –
– | – | 50.7196 | 4.03 | CCC(C)c1ccc(NC(=S)Nc2ccc(S(=O)(=O)Nc3c(C)cc(C)cc3C)cc2)cc1 (stereo not drawn) [AD4-12403] | – | 5.3 | –
– | – | 34.0556 | 6.7 | COc1cccc(NC(=S)Nc2ccc(S(=O)(=O)Nc3ccc(Cl)cc3)cc2)c1 [AD4-12411] | – | 5.18 | –
– | – | 35.1946 | 6.83 | Cc1ccc(NC(=S)Nc2ccc(S(=O)(=O)Nc3ccc(Cl)cc3)cc2)cc1 [AD4-12413] | – | 6.35 | –
– | – | 129.155 | 6.35 | O=S(=O)(Nc1ccc(Cl)cc1)c1ccc(NC(=S)Nc2cccc(C(F)(F)F)c2)cc1 [AD4-12423] | – | 5.77 | IC50 [2, 10]: 4.23 µM; IC50 [3, 11]: 2.92 µM
– | – | 82.3761 | 4.08 | CC(C)c1ccc(NC(=S)Nc2ccc(S(=O)(=O)Nc3cc(Cl)cc(Cl)c3)cc2)cc1 [AD4-12424] | – | 4.73 | –
– | – | 82.0877 | 4.07 | CCc1ccc(NC(=S)Nc2ccc(S(=O)(=O)Nc3ccc(Cl)c(Cl)c3)cc2)cc1 [AD4-12430] | – | 5.54 | –
– | – | 26.7815 | 6.4 | O=S(=O)(Nc1ccc(Cl)c(Cl)c1)c1ccc(NC(=S)Nc2cccc(F)c2)cc1 [AD4-12431] | – | 5.57 | –
– | – | 54.4095 | 29.1 | COc1ccc(NS(=O)(=O)c2ccc(NC(=S)Nc3ccc(OC)c(OC)c3)cc2)cc1 [AD4-12433] | – | 38.5 | –
– | – | 41.4281 | 6.67 | O=S(=O)(Nc1ccc(Cl)cc1)c1ccc(NC(=S)Nc2ccccc2C(F)(F)F)cc1 [AD4-12435] | – | 6.15 | –
– | – | 108.826 | 5.47 | CCc1ccc(NC(=S)Nc2ccc(S(=O)(=O)Nc3cc(Cl)cc(Cl)c3)cc2)cc1 [AD4-12436] | – | 5.53 | –
– | – | 53.245 | 5.69 | Cc1ccc(NC(=S)Nc2ccc(S(=O)(=O)Nc3ccc(Cl)c(Cl)c3)cc2)cc1 [AD4-12438] | – | 5.9 | –
